In patent US12576155B2, “Senolytic and antiinflammatory prodrugs and methods of use thereof” (priority 2019, dated 2026):

Columns and labels:
[1] = test system: primary mouse fibroblasts and their replication-induced senescent counterparts; assay: Cell viability testing, senescent vs non-senescent primary mouse fibroblasts; type: cell-based; conditions: increasing doses; senescent vs non-senescent cells
Description: Mouse embryonic fibroblasts (MEFs) were isolated from E13.5 embryos as described previously (Zhao et al., Cell Stem Cell 23, 31-45 e37([…])). Newborn mouse skin fibroblasts (NBFs) were isolated from the skin of day 1-3 newborn mice. Adult mouse lung fibroblasts were isolated from 2-month-old and 23-month-old mice. Briefly, mouse embryonic tissues, skin and lung were obtained from described donor mice. Then, these tissues were minced with forceps and incubated in 2 mg/ml collagenase IV (Gibco) for 2-4 hours at 37° C. After enzyme treatment, cells were collected by centrifugation and resuspended in high-glucose DMEM (Gibco) supplemented with 10% fetal bovine serum (FBS) and 1% penicillin-streptomycin (Gibco). The three types of mouse primary cells were all cultured in a humidified incubator at 37° C. and 5% CO2.
To avoid replication-induced senescent cells, low-passage proliferative NBFs (<3 passages), MEFs (<3 passages), mouse lung fibroblasts (<3 passages), HEFs (<10 passages), and HUVECs (<6 passages) were used as normal controls. To induce cell quiescence, MEFs were cultured in DMEM without FBS for 2 days.
For replication-induced senescence, cells were passaged until they lost the ability to proliferate and became senescent. NBFs were used as senescent cells after approximately 8-9 passages or 12 population doublings. HEFs were used after approximately 35 passages or 50 population doublings. HUVECs were senescent after approximately 18 passages or 24 population doublings.
To test the viability of senescent and non-senescent cells treated with SSK1, cells were stained with a mixture of Hoechst 33342 and propidium iodide (PI) (CA1120, Solarbio) to distinguish living and dead cells. After treatment with the small molecules, the cell culture medium was removed, and the cells were washed once with PBS. […] The plate was incubated at 4° C. for 30 min and observed on a fluorescence microscope or automatic cell imaging system. Viable cells were quantified using a MD Image Xpress Micro XL (Molecular Devices).

[2] = test system: SARS-CoV-2-infected rhesus macaques; assay: SARS-CoV-2-infected rhesus macaques, late-stage SSK1 treatment (i.v. once a day 22 to 28 dpi); type: in vivo
Description: To evaluate the therapeutic effect of SSK1 on the recovery period of SARS-CoV-2 infection, we used nine rhesus macaques of three different ages as reported before (Lu et al., 2020). All the animals were inoculated with total 4.75 ml of 10^6 pfu/ml SARS-CoV-2 intratracheally (4.00 ml), intranasally (0.50 ml) and on conjunctiva (0.25 ml). The nine rhesus macaques were divided into three groups according to the treatments, which included vehicle (DMSO), low dosage (0.5 mg/kg) and high dosage (2.0 mg/kg) of SSK1, respectively. Each group randomly selected one young, one adult and one old monkey. The final grouping is presented as following: the vehicle-treated group, RM1 (young), RM2 (adult) and RM3 (old); 0.5 mg/kg SSK1-treated group, RM4 (young), RM5 (adult) and RM6 (old); 2.0 mg/kg SSK1-treated group, RM7 (young), RM8 (adult) and RM9 (old). […] For each group, vehicle (DMSO), low dosage SSK1 (0.5 mg/kg) and high dosage SSK1 (2.0 mg/kg) were administrated intravenously (i.v.) once a day from 22 to 28 dpi. Animals were anesthetized and clinical exams were performed daily. We recorded the body weight, anal temperature on each examination day and collected blood samples for hematology analysis as well as swabs form nasal, throat and rectal for virus quantitative detection. The monkeys were euthanized on 34, 35 and 36 dpi. We collected the bronchoalveolar lavage fluid (BALF) with 10 ml PBS (Gibco, Cat #21-040-CVC) and recorded the pathological changes of all organs. Tissue samples collected from all organs and the BALF were further analyzed.
100 mg/ml SSK1 dissolved in DMSO (Life Science, Cat #1087C114) was mixed in 95% PBS (Gibco, Cat #21-040-CVC), 5% Tween-80 (BioFroxx, Cat #1716) and administrated intravenously (i.v.) at the dosage of 0.5 mg/kg or 2.0 mg/kg to monkeys at the indicated time point (the injection finished within 5-10 minutes). DMSO mixed in 95% PBS (Gibco, Cat #21-040-CVC), 5% Tween-80 (BioFroxx, Cat #1716) was intravenously (i.v.) injected as vehicle.
The blood samples were collected from saphenous vein of hind limb of anaesthetized monkeys using 5 ml blood collection tube containing sodium citrate anti-coagulant for further analysis. For Complete Blood Count (CBC), Auto Hematology Analyzer (BC-5000 Vet, Mindray, China) was used. The white blood cells-related numbers and percentages of Neutrophil (Neu), Lymphocyte (Lym), Monocyte (Mon), Eosinophil (Eos), Basophil (Bas), and platelet-related items, platelet count (PLT), mean platelet volume (MPV), platelet distribution width (PDW), plateletcrit (PCT) were analyzed. For serum biochemical analysis, the blood was clotted for 30 min at 4° C. and centrifugated at 3,000×rpm for 15 min to obtain serum. The serum was used to analysis the alanine transaminase (ALT), aspartate transaminase (AST), alkaline phosphatase (ALP), uric acid (UA) and creatinine (CRE-E) by Chemistry Analyzer (Mindray, BS-350E).
The serum and BALF samples were collected for analysis of cytokine and chemokine. Concentration of granulocyte colony-stimulating factor (G-CSF), granulocyte-macrophage colony-stimulating factor (GM-CSF), interferon (IFN)-γ, interleukin (IL)-1 receptor antagonist, IL-1β, IL-2, IL-4, IL-5, IL-6, IL-8, IL-10, IL-12/23 (p40), IL-13, IL-15, IL-17, IL-18, monocyte chemotactic protein (MCP)-1, macrophage inflammatory protein (MIP)-1α, MIP-1β, soluble CD40-ligand (sCD40L), transforming growth factor (TGF)-α, tumor necrosis factor (TNF)-α, vascular endothelial growth factor (VEGF) were determined using the Non-Human Primate Cytokine MILLIPLEX map 23-plex kit (Millipore, Cat #PRCYTOMAG-40K) according to the manufacturer's instructions.
Autopsies of the rhesus macaques were performed according to a standard protocol. After the dissection, the major organs were grossly examined. The lung tissues were harvested, fixed in 10% neutral-buffered formalin solution, embedded in paraffin and 2 μm tissue sections were prepared. […]

[3] = test system: senescent mouse fibroblasts induced by ionizing irradiation, oncogene overexpression, or genotoxic stress (etoposide treatment); assay: Cell viability, oncogene-, etoposide- and irradiation-induced senescent MEFs; type: cell-based; conditions: oncogene- (Kras), etoposide- and irradiation- (10 Gy) induced senescent MEFs vs non-senescent; increasing doses

CC(=O)OCC1O[C@@H](Oc2ccc(COC(=O)Nc3ccn([C@@H]4O[C@H](CO)C(O)C4(F)F)c(=O)n3)cc2[N+](=O)[O-])C(OC(C)=O)C(OC(C)=O)[C@H]1OC(C)=O (stereo partly shown) [SSK1]
Selective killing of senescent cells (viable cells) [1]: selectively and potently eliminated SA-β-gal-positive senescent cells over non-senescent cells with a wide therapeutic window | Body weight change (32 dpi vs 22 dpi %) ([2]; RM4 young 1-year, 0.5 mg/kg): +25.00% | Body weight change (32 dpi vs 22 dpi %) ([2]; RM5 adult 5-year, 0.5 mg/kg): −3.45% | Body weight change (32 dpi vs 22 dpi %) ([2]; RM6 old 17-year, 0.5 mg/kg): −1.25% | Body weight change (32 dpi vs 22 dpi %) ([2]; RM7 young 1-year, 2.0 mg/kg): +12.50% | Body weight change (32 dpi vs 22 dpi %) ([2]; RM8 adult 5-year, 2.0 mg/kg): +9.68% | Body weight change (32 dpi vs 22 dpi %) ([2]; RM9 old 18-year, 2.0 mg/kg): +1.82% | Body weight loss ([2]; SSK1 0.5 or 2.0 mg/kg, 22 to 32 dpi): effectively prevented body weight loss | Pulmonary histology assessment (histologic lesions) ([2]; SSK1-treated animals vs vehicle): reduction in histologic lesions | Diseased phenotype of lung sections (thickened alveolar septum, edema, hemorrhage; H&E staining) ([2]; SSK1-treated group vs vehicle): greatly improved | Inflammatory cytokines in blood including IL-6, IL-8, IL-10, IL-15, TGF-α and MCP1 ([2]; SSK1-treated old monkeys, especially at 2 mg/kg): reduced at 28 dpi compared with 21 dpi | Serum level of IL-18 ([2]; all high-dosage (2.0 mg/kg) SSK1-treated monkeys): increased level | New lung lesions at necropsy ([2]; all six SSK1-treated monkeys): only found one exhibiting new lung lesions | Macrophage infiltration in lung (CD68 immunohistochemistry) ([2]; especially at high dosages, in the elderly group): significantly reduced macrophage infiltration | Adverse effects ([2]; treated monkeys): did not observe any adverse effects | Selective killing of senescent cells (viable cells) [3]: selectively killed by SSK1, while non-senescent cells were largely unaffected
